Assay results as given in patent US9238020B2, “Compositions comprising enzyme-cleavable phenol-modified tapentadol prodrug” (priority 2010, dated 2016).
Read-outs that look alike come from different tables or passages of the source.

Legend:
[1] = Pharmacokinetics of tapentadol release following PO administration of prodrugs or tapentadol to rats; type: in vivo, rat
Method: Saline solutions of Compound TP-1 (which can be prepared as described in the examples herein) were dosed as indicated in Table 1 via oral gavage into 4 jugular vein-cannulated male Sprague Dawley rats that had been fasted for 16-18 hr prior to oral dosing. At specified time points, blood samples were drawn, harvested for plasma via centrifugation at 5,400 rpm at 4° C. for 5 min, and 100 microliters (μl) plasma transferred from each sample into a fresh tube containing 2 μl of 50% formic acid. The tubes were vortexed for 5-10 seconds, immediately placed in dry ice and then stored in a −80° C. freezer until analysis by HPLC/MS.
Saline solutions of Compounds TP-1, TP-3, TP-4, (which can be prepared as described in the examples herein) or tapentadol were dosed in approximately equimole amounts as indicated in Table 6. Dose administration, sampling and analysis procedures were as described in Example 11.
Dosing, sampling and analysis procedures were as described in Example 11.

[2] = Pharmacokinetics of prodrug and tapentadol following IV administration to rats; conditions: male, Sprague Dawley, in vivo; prodrug in rat plasma; TP-1 IV 2 mg/kg (3 μmol/kg); read-out: TP-1 Cmax ± sd
Method: Compound TP-1 (which can be prepared as described in the examples herein) was dissolved in saline and injected into the tail vein of 4 jugular vein-cannulated male Sprague Dawley rats at a dose of 2 mg/kg. At specified time points, blood samples were drawn, harvested for plasma via centrifugation at 5,400 rpm at 4° C. for 5 min, and 100 μl plasma transferred from each sample into a fresh tube containing 2 μl of 50% formic acid. The tubes were vortexed for 5-10 seconds, immediately placed in dry ice and then stored in a −80° C. freezer until analysis by high performance liquid chromatography/mass spectrometry (HPLC/MS).
Table 2 and FIG. 4 provide Compound TP-1 and tapentadol exposure results for rats administered Compound TP-1 intravenously. Results in Table 2 are reported as maximum plasma concentration (Cmax) of Compound TP-1 and tapentadol (TP), respectively, (average±standard deviation).
Compound TP-3 or Compound TP-4 (which can be prepared as described in the examples herein), or tapentadol were dissolved in saline and injected into the tail vein of four jugular vein-cannulated male Sprague Dawley rats at a dose of 2 mg/kg. Sampling and analysis procedures were as described in Example 12.

[3] = system: norepinephrine uptake into rat hypothalamus synaptosomes; assay: In vitro functional norepinephrine uptake assay; type: biochemical; conditions: rat hypothalamus synaptosomes
Method: The general procedure follows the protocol described by S. Perovic and W. E. G. Muller, 1995, Arzneim-Forsch. Drug Res. 45, 1145-1148. More specifically, the assays included each of the compounds indicated in Table 13 and rat hypothalamus synaptosomes incubated with 0.2 μCi/mL [^3H] norepinephrine. For a control reaction, protriptyline was used. The reaction mixtures were incubated at 37° C. for 20 min, and the reaction product of [^3H] norepinephrine incorporation into the synaptosomes was measured by scintillation counting. IC50 values (concentration causing a half-maximal inhibition of control specific activity) were determined by non-linear regression fit using Hill plot software.

[4] = Plasma and cerebrospinal fluid penetration following IV administration to rats; type: in vivo, rat; conditions: for concentration at 2 min: male, Sprague Dawley, rat, in vivo, TP-1 10 mg/kg, tapentadol 4 mg/kg
Method: Compound TP-1 (which can be prepared as described in the examples herein) at a dose of 10 mg/kg, or tapentadol, at a dose of 4 mg/kg, were dissolved in saline and injected into the tail vein of 4 male Sprague Dawley rats. These doses represent approximately equimole amounts. After 2 minutes, the rats were anesthetized by carbon dioxide asphyxiation, blood samples were drawn and harvested for plasma by centrifugation at 5,400 rpm at 4° C. for 5 min, and 100 μl plasma was transferred from each sample into a fresh tube containing 2 μl of 50% formic acid. The CSF fluid was collected using a 22×1 inch gauge needle connected to polyurethane catheter type MRE-040 tubing (Braintree Scientific, Inc., Braintree, Mass.). The needle was inserted just below the nuchal crest at the area of the foramen magnum, and clear CSF fluid was collected into the catheter and transferred into a collection tube. The CSF samples were centrifuged at 5,400 rpm at 4° C. for 5 min, and 100 μl CSF fluid was transferred from each sample into a fresh tube. The plasma and CSF samples were immediately placed in dry ice and then stored in a −80° C. freezer until analysis by high performance liquid chromatography/mass spectrometry (HPLC/MS). In order to study Compound TP-1 and tapentadol plasma and CSF penetration over time, additional groups of 4 rats were administered compounds as described above and anesthetized at specified time points. Plasma and CSF were collected and analyzed as described above.
Results in Table 14 are reported, for each group of four rats, as mean concentrations of the indicated compounds in plasma or CSF. Table 14 also provides the plasma-to-CSF (plasma/CSF) partitioning coefficient, i.e., the ratio of concentration in the plasma to concentration in the CSF of the indicated compounds.

[5] = target: T1, human μ-opioid receptor (Homo sapiens, UniProt P35372); assay: In vitro human μ-opioid receptor agonist cellular functional assay (cAMP, CHO cells); type: cell-based; design: expressed in transfected cells; conditions: CHO cells expressing human μ-opioid receptor, 37° C., 10 min
T1 sequence (P35372 whole entry): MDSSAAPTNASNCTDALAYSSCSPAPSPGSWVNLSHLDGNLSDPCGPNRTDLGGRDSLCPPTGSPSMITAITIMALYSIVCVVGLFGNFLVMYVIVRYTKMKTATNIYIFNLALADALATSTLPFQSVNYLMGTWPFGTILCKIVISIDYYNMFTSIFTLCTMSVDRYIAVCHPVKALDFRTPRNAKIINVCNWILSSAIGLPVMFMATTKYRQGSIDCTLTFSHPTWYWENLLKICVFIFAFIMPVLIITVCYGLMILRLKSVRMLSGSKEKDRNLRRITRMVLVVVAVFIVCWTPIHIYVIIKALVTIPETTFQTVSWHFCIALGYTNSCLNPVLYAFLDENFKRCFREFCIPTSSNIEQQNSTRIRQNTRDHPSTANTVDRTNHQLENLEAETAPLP
Method: The general procedure follows the protocol described by J.-B. Wang, et al, ibid. More specifically, the assay included as appropriate, Compound TP-1 or tapentadol and recombinant Chinese hamster ovary (CHO) cells expressing the human μ-opioid receptor on their cell surfaces. The control reaction included 1 μM DAMGO. The reaction mixtures were incubated at 37° C. for 10 min, and the reaction product was cyclic AMP (cAMP). The samples were submitted to homogeneous time resolved fluorescence (HTRF®). EC50 values (concentration producing a half-maximal specific response) were determined by non-linear regression fit using Hill plot software.

[6] = target: T1, human μ-opioid receptor; assay: In vitro human μ-opioid receptor binding assay ([3H]DAMGO, recombinant HEK-293 cells); design: expressed in transfected cells; host or cells: HEK-293; conditions: relative to tapentadol
Method: The general procedure follows the protocol described by J.-B. Wang, et al, 1994, FEBS Lett. 338, 217-222. More specifically, the assays included tapentadol or Compound TP-1 (which can be prepared as described in the examples herein) as well as recombinant HEK-293 cells expressing the human μ-opioid receptor on their cell surfaces, reference compound [d-Ala^2,N-Me-Phe^4,Gly^5−ol]-enkephalin (DAMGO), radioligand [^3H]DAMGO (0.5 nM) and non-specific ligand naloxone (10 uM). The reaction mixtures were incubated at 22° C. for 2 hr. The samples were then submitted to scintillation counting.
In these assays, the specific binding of a test compound to the receptor is defined as the difference between the total binding and the non-specific binding determined in the presence of an excess of unlabelled ligand. Results are expressed as a percent of control of specific binding and as a percent inhibition of control specific binding obtained in the presence of test compounds. The IC50 values (concentration of competing ligand required for 50% inhibition of [^3H]DAMGO binding), and Hill coefficients (nH) were determined by non-linear regression analysis of competition curves using Hill equation curve fitting.

Compound: CC[C@@H](c1cccc(OC(=O)N(C)CCNC(=O)[C@H](CCCNC(=N)N)NC(=O)CC(=O)O)c1)[C@@H](C)CN(C)C [Compound TP-1, N—[(S)-1-(2-{[3-((1R,2R)-3-dimethylamino-1-ethyl-2-methyl-propyl)-phenoxycarbonyl]-methyl-amino}-ethylcarbamoyl)-4-guanidino-butyl]-malonamic acid]
- plasma concentrations of tapentadol versus prodrug dose ([1]; 5 to 50 mg/kg): increase proportionally
- tapentadol plasma concentration profile compared to administration of tapentadol ([1]; approximately equimole amounts): suppressed Cmax and delayed Tmax
- Cmax [2]: 965 ± 160 ng/mL
- activity as a norepinephrine reuptake inhibitor [3]: no detectable activity
- relative plasma/CSF partitioning coefficient of Compound TP-1 to tapentadol (fold less CSF-penetrant) ([4]; 671/10.4): about 64 fold
- concentration at 2 min ([4]; rats, IV, 2 minutes after dosing, read-out: Compound conc. in CSF): 65.3 ng/mL
- concentration at 2 min ([4]; rats, IV, 2 minutes after dosing, read-out: Compound conc. in Plasma): 43800 ng/mL
- Plasma/CSF partitioning coefficient ([4]; rats, IV, 2 minutes after dosing, ratio of concentration in plasma to concentration in CSF): 671
- agonist response in the μ-opioid receptor functional assay [5]: weak response was seen at 100 μM
- affinity for the μ-opioid receptor, fold less than that of tapentadol [6]: at least 200 fold
